Measurements as given in US20180139962A1, “FUNGICIDAL N-CYCLOALKYL-N-{[ORTHO-(1-SUBSTITUTED-CYCLOALKYL)HETEROARYL]METHYL}PYRAZOLE(THIO)CARBOXAMIDS” (Bayer CropScience Aktiengesellschaft, priority 2015, published 2018).
Where “and” joins values, the source holds several entries; their conditions need not be identical. Equal values may be shown once.

What was measured:
[1] = test system: Uromyces appendiculatus; assay: In vivo preventive test on Uromyces appendiculatus (bean rust); conditions: Table B2, dose 100 ppm, bean plants, comparison with isopropyl analogues of WO2012/059497
Method: EXAMPLE B: IN VIVO PREVENTIVE TEST ON UROMYCES APPENDICULATUS (BEAN RUST) Solvent: 5% by volume of Dimethyl sulfoxide • 10% by volume of Acetone Emulsifier: 1 μL of Tween® 80 per mg of active ingredient The active ingredients are made soluble and homogenized in a mixture of Dimethyl sulfoxide/Acetone//Tween® 80 and then diluted in water to the desired concentration. The young plants of bean are treated by spraying the active ingredient prepared as described above. Control plants are treated only with an aqueous solution of Acetone/Dimethyl sulfoxide/Tween® 80. After 24 hours, the plants are contaminated by spraying the leaves with an aqueous suspension of Uromyces appendiculatus spores. The contaminated bean plants are incubated for 24 hours at 20° C. and at 100% relative humidity and then for 10 days at 20° C. and at 70-80% relative humidity. The test is evaluated 11 days after the inoculation. 0% means an efficacy which corresponds to that of the control plants while an efficacy of 100% means that no disease is observed.

[2] = log P determination by HPLC on reversed-phase column (C 18), EEC Directive 79/831 Annex V.A8; assay type: physicochemical; conditions: C 18 reversed phase, 40° C., 0.1% aqueous formic acid and acetonitrile, linear gradient 10% to 90% acetonitrile; for chromatographic logP: reversed-phase C18 HPLC column
Method: In table 1, the log P values were determined in accordance with EEC Directive 79/831 Annex V.A8 by HPLC (High Performance Liquid Chromatography) on a reversed-phase column (C 18), using the method described below: Temperature: 40° C.; Mobile phases: 0.1% aqueous formic acid and acetonitrile; linear gradient from 10% acetonitrile to 90% acetonitrile. Calibration was carried out using unbranched alkan-2-ones (comprising 3 to 16 carbon atoms) with known log P values (determination of the log P values by the retention times using linear interpolation between two successive alkanones). lambda-max-values were determined using UV-spectra from 200 nm to 400 nm and the peak values of the chromatographic signals.

Structure (SMILES)	logP [2]	other results
Cc1cc(C(C)C)c(CN(C(=O)c2c(C(F)F)nn(C)c2F)C2CC2)s1 [CMP1, N-cyclopropyl-3-(difluoromethyl)-5-fluoro-N-[(3-isopropyl-5-methyl-2-thienyl)methyl]-1-methyl-1H-pyrazole-4-carboxamide, reference compound]		Efficacy [1]: 65%
Cc1cc(C(C)C)c(CN(C(=O)c2c(C(F)F)nn(C)c2Cl)C2CC2)s1 [CMP2, 5-chloro-N-cyclopropyl-3-(difluoromethyl)-N-[(3-isopropyl-5-methyl-2-thienyl)methyl]-1-methyl-1H-pyrazole-4-carboxamide, reference compound]		Efficacy [1]: 0%
Cc1cnc(C2(C)CC2)c(CN(C(=O)c2c(C(F)F)nn(C)c2F)C2CC2)c1 [I.05]	1.42	
Cc1cc(C2(Cl)CC2)c(CN(C(=O)c2c(C(F)F)nn(C)c2F)C2CC2)s1 [I.15, N-{[3-(1-chlorocyclopropyl)-5-methyl-2-thienyl]methyl}-N-cyclopropyl-3-(difluoromethyl)-5-fluoro-1-methyl-1H-pyrazole-4-carboxamide]		chromatographic logP [2]: 3.76
Cn1nc(C(F)F)c(C(=S)N(Cc2cccnc2C2(C)CC2)C2CC2)c1F [I.20]	1.53	
Cc1cnc(C2(C)CC2)c(CN(C(=S)c2c(C(F)F)nn(C)c2F)C2CC2)c1 [I.22]	1.59	
Cn1nc(C(F)F)c(C(=S)N(Cc2cc(Cl)cnc2C2(C)CC2)C2CC2)c1F [I.23]	3.52	
Cn1nc(C(F)F)c(C(=O)N(Cc2cc(C3=CCCC3)cnc2C2(C)CC2)C2CC2)c1F [I.29]	2.05	
Cn1nc(C(F)F)c(C(=O)N(Cc2cc(-c3ccsc3)cnc2C2(C)CC2)C2CC2)c1F [I.30]	2.12	
CC1(c2ccsc2CNC2CC2)CC1 [IIa.01, N-{[3-(1-methylcyclopropyl)-2-thienyl]methyl}cyclopropanamine]		chromatographic logP [2]: 0.7
ClC1(c2ccsc2CNC2CC2)CC1 [IIa.02, N-{[3-(1-chlorocyclopropyl)-2-thienyl]methyl}cyclopropanamine]		chromatographic logP [2]: 0.87
Cc1cc(C2(Cl)CC2)c(CNC2CC2)s1 [IIa.03, N-{[3-(1-chlorocyclopropyl)-5-methyl-2-thienyl]methyl}cyclopropanamine]		chromatographic logP [2]: 1.2
COC1(c2cc(C)sc2CNC2CC2)CC1 [IIa.04, N-{[3-(1-methoxycyclopropyl)-5-methyl-2-thienyl]methyl}cyclopropanamine]		chromatographic logP [2]: 1.07
O=Cc1sccc1C1(Cl)CC1 [IV.01, 3-(1-chlorocyclopropyl)thiophene-2-carbaldehyde]		chromatographic logP [2]: 2.41
Cc1cc(C2(Cl)CC2)c(C=O)s1 [IV.02, 3-(1-chlorocyclopropyl)-5-methylthiophene-2-carbaldehyde]		chromatographic logP [2]: 2.75
CC1(c2ccsc2CBr)CC1 [Va1.01, 2-(bromomethyl)-3-(1-methylcyclopropyl)thiophene]		chromatographic logP [2]: 2.14
Cc1cc(C2(C)CC2)c(CBr)s1 [Va1.02, 2-(bromomethyl)-5-methyl-3-(1-methylcyclopropyl)thiophene]		chromatographic logP [2]: 2.54
CC1(c2ccsc2CO)CC1 [Vc.01, [3-(1-methylcyclopropyl)-2-thienyl]methanol]		chromatographic logP [2]: 2.09
Cc1cc(C2(C)CC2)c(CO)s1 [Vc.02, [5-methyl-3-(1-methylcyclopropyl)-2-thienyl]methanol]		chromatographic logP [2]: 2.52
N#CC1(c2ccsc2CO)CC1 [Vc.03, 1-[2-(hydroxymethyl)-3-thienyl]cyclopropanecarbonitrile]		chromatographic logP [2]: 0.63

Continued, in another order:

logP [2]	Structure (SMILES)	other results
1.28	Cn1nc(C(F)F)c(C(=O)N(Cc2cccnc2C2(C)CC2)C2CC2)c1F [I.01]	
1.41	Cn1nc(C(F)F)c(C(=O)N(Cc2cccnc2C2(C)CC2)C2CC2)c1Cl [I.02]	
2.88	Cn1nc(C(F)F)c(C(=O)N(Cc2cc(Cl)cnc2C2(C)CC2)C2CC2)c1F [I.03]	
3.09	Cn1nc(C(F)F)c(C(=O)N(Cc2cc(Cl)cnc2C2(C)CC2)C2CC2)c1Cl [I.04]	
1.54	Cc1cnc(C2(C)CC2)c(CN(C(=O)c2c(C(F)F)nn(C)c2Cl)C2CC2)c1 [I.06]	
3.12	Cn1nc(C(F)F)c(C(=O)N(Cc2cc(Br)cnc2C2(C)CC2)C2CC2)c1Cl [I.07]	
2.91	Cn1nc(C(F)F)c(C(=O)N(Cc2cc(Br)cnc2C2(C)CC2)C2CC2)c1F [I.08]	
3.70	Cn1nc(C(F)F)c(C(=O)N(Cc2sccc2C2(C)CC2)C2CC2)c1F [I.09]	
3.85	Cn1nc(C(F)F)c(C(=O)N(Cc2sccc2C2(C)CC2)C2CC2)c1Cl [I.10]	
4.13	Cc1cc(C2(C)CC2)c(CN(C(=O)c2c(C(F)F)nn(C)c2F)C2CC2)s1 [I.11]	Efficacy [1]: 100%
4.27	Cc1cc(C2(C)CC2)c(CN(C(=O)c2c(C(F)F)nn(C)c2Cl)C2CC2)s1 [I.12]	Efficacy [1]: 100% and 92%
3.37	Cn1nc(C(F)F)c(C(=O)N(Cc2sccc2C2(Cl)CC2)C2CC2)c1F [I.13]	
3.55	Cn1nc(C(F)F)c(C(=O)N(Cc2sccc2C2(Cl)CC2)C2CC2)c1Cl [I.14]	
3.92	Cc1cc(C2(Cl)CC2)c(CN(C(=O)c2c(C(F)F)nn(C)c2Cl)C2CC2)s1 [I.16]	
3.37	COC1(c2cc(C)sc2CN(C(=O)c2c(C(F)F)nn(C)c2F)C2CC2)CC1 [I.17]	
4.15	Cn1nc(C(F)F)c(C(=O)N(Cc2sc(Br)cc2C2(Cl)CC2)C2CC2)c1F [I.18]	
1.63	Cn1nc(C(F)F)c(C(=S)N(Cc2cccnc2C2(C)CC2)C2CC2)c1Cl [I.19]	
1.69	Cc1cnc(C2(C)CC2)c(CN(C(=S)c2c(C(F)F)nn(C)c2Cl)C2CC2)c1 [I.21]	
3.71	Cn1nc(C(F)F)c(C(=S)N(Cc2cc(Cl)cnc2C2(C)CC2)C2CC2)c1Cl [I.24]	
4.19	Cn1nc(C(F)F)c(C(=S)N(Cc2sccc2C2(Cl)CC2)C2CC2)c1Cl [I.25]	
4.56	Cc1cc(C2(Cl)CC2)c(CN(C(=S)c2c(C(F)F)nn(C)c2Cl)C2CC2)s1 [I.26]	
4.44	Cn1nc(C(F)F)c(C(=S)N(Cc2sccc2C2(C)CC2)C2CC2)c1Cl [I.27]	
4.28	Cn1nc(C(F)F)c(C(=S)N(Cc2sccc2C2(C)CC2)C2CC2)c1F [I.28]	
2.33	Cn1nc(C(F)F)c(C(=O)N(Cc2cc(-c3ccccc3)cnc2C2(C)CC2)C2CC2)c1Cl [I.31]	
1.91	C=Cc1cnc(C2(C)CC2)c(CN(C(=O)c2c(C(F)F)nn(C)c2Cl)C2CC2)c1 [I.32]	
